# Source: patent US4778796A, “ω-(3-pyridyl)alkenamide derivatives and anti-allergenic pharmaceutical compositions containing same” (Dainippon Pharmaceutical Co., Ltd., priority 1985, dated 1988)
# Read-outs that look alike come from different tables or passages of the source.
# Experiments:
# [1] = test system: passive cutaneous anaphylaxis (PCA); assay: Inhibitory effect on passive cutaneous anaphylaxis (PCA) in rats; format: in vivo, rat (male Wistar); settings: Rattus norvegicus; 20 mg/kg, oral, 1 hour before antigen challenge; read-out: Inhibition (PCA in rats)
# Description: (1) Inhibitory effect on passive cutaneous anaphylaxis (PCA) in rats:
# This test was carried out by the method of Perper et al. [cf.
# Male Wistar rats (130-180 g) were injected with 0.1 ml of a dilute solution of mouse antiserum to egg albumin in two sites of the shaved ventral skin. Forty-eight hours later each rat was challenged by an intravenous injection of 2 mg of the antigen together with 1 ml of a 0.5% Evan's blue saline solution. The rats were sacrificed 30 minutes after the challenge. The area of the blueing lesions was measured on the undersurface of the skin. The average value of the two lesions of each rat was regarded as the response of the rat. Test compounds in a dose of 20 mg/kg, dissolved or suspended in a 0.5% aqueous tragacanth solution, were administered orally 1 hour before the antigen challenge. The inhibitory rate was determined by comparing the responses of the rats given each test compound with those of the rats given only a 0.5% aqueous tragacanth solution. Each group of 3 rats was used for each test compound. The mouse antiserum to egg albumin was produced by the method of Levine and Vaz [cf. Int. Arch. Allergy Appl.
# [2] = test system: experimental asthma; assay: Inhibitory effect on experimental asthma in rats; format: in vivo, rat (male Wistar); settings: Rattus norvegicus, po, 1 hour before antigen challenge
# Description: (2) Inhibitory effect on experimental asthma in rats: This test was carried out by the method of Church and Miller [cf. Brit. […] Male Wistar rats (200-250 g) were sensitized by an intraperitoneal injection of 1 ml of a 0.01% egg albumin solution containing 1 mg of Al(OH)3. Two weeks later, the rats were anesthetized with 1.3 g/kg of urethane. The trachea and jugular vein were cannulated. Respiratory volume and velocity were measured by attaching one end of the tracheal cannula to respiratory volume meter connected to a carrier amplifier and an integrator. The rats were challenged by an intravenous injection of 4 mg/kg of egg ablumin 30 minutes after the anesthesia. Test compounds, dissolved or suspended in a 0.5% aqueous tragacanth solution, were administered orally 1 hour before the antigen challenge. Each group of 4 rats was used for each dose of the test compound. ED50 values were calculated from the best fit linear regression line of inhibitory rates of respiratory volume and velocity in each dose.
# [3] = test system: histamine-induced contraction of isolated guinea pig trachea; assay: Inhibitory effect on histamine-induced contraction of isolated guinea pig trachea; parameters: species or system guinea pig (male Hartley)
# Description: (2) Inhibitory effect on histamine-induced contraction of isolated guinea pig trachea:
# Male Hartley guinea pigs (400-700 g) were used. Zig-zag strips of guinea pig trachea were prepared by the method of Emmerson and Mackay [cf. J. Pharm. […] Dose-response curves for histamine were obtained before and 5 minutes after the addition of test compounds. Inhibitory rate was calculated from contraction heights in 3×10^-5 M of histamine without vs. with test compound.
# [4] = test system: human basophils; assay: Inhibitory effect on histamine release induced by anti-human IgE antibody from healthy human basophils; format: cell-based
# Description: (3) Inhibitory effect on histamine release induced by anti-human IgE antibody from healthy human basophils:
# Basophils from nonallergic volunteers were collected by the method of Levy and Osler [cf. […] The cells were washed once with a cold Tris-A buffer at pH 7.4 (25 mM Tris, 120 mM NaCl, 5 mM KCl and 0.03% human serum albumin) containing 4 mM EDTA and twice with Tris-A buffer. After washing, the cells were resuspended at 5-10×10^6 leukocytes/ml in Tris-ACM buffer at pH 7.6 (Tris-A buffer, 0.6 mM CaCl2 and 1 mM MgCl2). One ml of the cell suspension was incubated with 0.1 ml of a solution of test compound or vehicle for 15 minutes at 37° C., and then for further 45 minutes with 0.1 ml of anti-human IgE antibody. After ice-cooling, the reaction mixtures were centrifuged at 1,200 rpm for 8 minutes at 4° C. The supernatant fluids and the cells were analysed separately for histamine by a modification of the spectrophotofluorometric technique of Shore et al. [cf. […] Histamine release rate was calculated according to the following equation. [formula] A: total histamine (supernatant+cell) B: supernatant histamine without anti-IgE
# C: supernatant histamine with anti-IgE
# Inhibitory rate was calculated from histamine release rates without vs. with test compound.
# [5] = compared with ketotifen fumarate
compound,measurement,setting,value
"Cc1ccc(C=CC(=O)NCCCCN2CCN(C(c3ccccc3)c3ccccc3)CC2)cn1 [Example 2, N-[3-(6-methyl-3-pyridyl)acryloyl]-4-(4-diphenylmethyl-1-piperazinyl)butylamine]",inhibition in vivo at 20 mg/kg,[1],81.9%
same,ED50,"[2]; respiratory velocity, read-out: ED50, respiratory velocity",5.5 mg/kg
same,ED50,"[2]; respiratory volume, read-out: ED50, respiratory volume",14.4 mg/kg
same,IC50,"[3]; 3×10^-5 M histamine, isolated guinea pig trachea, read-out: Anti-hist. activity IC50",1100 nM
same,antihistamine activity (in words),[3]; [5],"potent antihistamine activity, though fairly inferior to that of ketotifen fumarate"
same,IC50,"[4]; anti-human IgE antibody, human basophils, read-out: Histamine release inhibit. IC50",34 µM
same,ability to inhibit histamine release (in words),[4]; [5],superior to ketotifen fumarate in the ability to inhibit histamine release
